In patent US11337950B2, “Biologically active cannabidiol analogs” (University of Mississippi, priority 2016, dated 2022):
Several values for one entry are separate records, joined by “and”; a condition that tells them apart may be missing. Identical values can stand only once.

Assays:
[1] = test system: morphine place preference; assay: Morphine conditioned place preference, model of addiction (Example 25); settings: mice, morphine groups, IP; CBD 2.5-20.0 mg/kg, CBD-val-HS 10.0 mg/kg
[2] = Organ distribution of CBD-Mono-VHS after oral administration (Example 19); type: in vivo, rats; settings: rat, oral 4 mg/animal
Protocol: To determine whether CBD-Mono-VHS reaches the organs and especially the brain, two cannulated rats were administered same dose as those in Example 18. One rat was sacrificed at 2 hr. after dosing and the other at 4 hr. after dosing and the organs were harvested (brain, liver, and spleen) as well as blood for analysis.

[3] = test system: cisplatin-induced tactile allodynia; assay: Cisplatin-induced tactile allodynia model, electronic von Frey (Examples 23, 24); type: in vivo, C57BL/6 mice; settings: Example 24, mice; for Doses with mean withdrawal thresholds significantly higher compared to vehicle: ps≤0.0001
[4] = Bioavailability of CBD-Mono-VHS from a hydrophilic suppository, PEG 1000 (Example 17); type: in vivo; design: unit not given here; settings: rats, rectal 7.5 mg, Hydrophilic (PEG 1000) Suppository; for Plasma Concentration of CBD-Mono-VHS: individual animals
Protocol: CBD-Mono-Val-Mono-HS was formulated in PEG 1000 suppository base (a hydrophilic suppository base) at 75 mg/mL of melted base. The study was carried out in a cannulated rat model. Three animals were administered 100 μl. each of the semisolid formulation for a rectal dose of 7.5 mg CBD-Mono-VHS. […] The blood was centrifuged and the plasma was used for LC-MS/MS analysis.

[5] = Solubility of CBD and its analogs in Tocrisolve emulsion; type: physicochemical
Protocol: Formulations: 0.5% w/v CBD equivalent in Tocrisolve emulsion.
Tocrisolve composition: […] emulsion composed of a 1:4 ratio of soya oil/water that is emulsified with the block co-polymer Pluronic F68. Manufacturing process for the Tocrisolve emulsion: • Add accurately weighed amount of drug a glass vial. • Add required volume of Torcisolve blank emulsion to each vial • Vortex each vial for 5 minutes. • Sonicate each vial for 10 minutes. • Centrifuge each vial for 5 minutes at 9000 rpm at 25° C. • Collect the supernatant and analyze for CBD, CBD-Val Mono and CBD-Val-HS mono as applicable.

[6] = Oral bioavailability of CBD-Mono-VHS in sesame seed oil (Example 18); type: in vivo; settings: rats; for Plasma Concentration of CBD-Mono-VHS, Average / Plasma Concentration of CBD-Mono-VHS: oral 4 mg/animal in sesame seed oil; for Plasma Concentration of CBD-Mono-VHS: individual animals
Protocol: CBD-Mono-VHS was formulated in a sesame seed oil (Welch, Holme and Clark Co. lot #39375) formulation composed of 40 mg/mL solution of the drug substance/mi. Animals (cannulated rats, n=4) were dosed 100 μl of the oil solution by oral gavage. Blood samples were collected at 0, 0.25, 0.5, 1, 2, 4, 6, 8, and 24 hr. after dosing. The blood samples were centrifuged and the plasma was analyzed for CBD-Mono-VHS. Table 7 and FIG. 5 show the results, with very high blood levels which remain significant (>10 ng/mL) at 24 hr. after dosing.

[7] = In vivo eye tissue levels 90 min after topical application in Tocrisolve emulsion (Examples 12-14); design: species or system New Zealand albino rabbits
Protocol: Conscious male New Zealand albino rabbits were used. The formulations were applied topically into the rabbits eyes (50 μL containing the equivalent of 250 μg CBD) in Tocrisolve® emulsion formulations as described in Example 11. The animals were sacrificed 90 min. after drug application and the eye tissues harvested for analysis.
The same procedure was followed as shown under Example 12. Additional CBD analogs were tested in this example. In this example the tissue levels of both free CBD and intact analog were determined.
Formulations: Fifty microlitres of 0.5% w/v CBD in Tocrisolve emulsion (Dose: 0.25 mg)
Animal model: Conscious male new Zealand albino rabbits, Duration of the study: 90 min.
Aqueous humor, Vitreous humor, Retina-Choroid and Iris-Ciliary bodies analysed for parent compound as well as CBD.
Formulations: Fifty microlitres of 0.5% w/v Tocrisolve emulsion formulations (Dose: 0.25 mg)
Animal model: Conscious male new Zealand albino rabbits, Duration of the study: 90 min

[8] = Organ distribution of CBD-Mono-VHS after oral administration (Example 19); type: in vivo, rats; settings: rat, oral 4 mg/animal; remark: listed apart in the source
[9] = Table 3, Set 1, rabbit eye, 90 min post topical 50 μL Tocrisolve emulsion, dose 0.25 mg CBD
[10] = Table 4, Set 2, rabbit, 90 min post topical 50 μL Tocrisolve emulsion, dose 250 μg
[11] = rabbit eye, 90 min post topical, 0.25 mg CBD

Q: What does the source list for `C=C(C)C1CCC(C)=CC1c1c(O)cc(CCCCC)cc1OC(=O)[C@@H](NC(=O)CCC(=O)O)C(C)C` (some centres unmarked) [CBD-Mono-VHS, CBD-Mono-Valinate-Mono-Hemisuccinate]?
A: Effect on morphine place preference, in words [1]: significantly (P=0.005) blocked the addictive effects of morphine; Organ level of CBD-Mono-VHS, BRAIN ([2]; 2 HR): 556 ng/organ; Organ level of CBD-Mono-VHS, LIVER ([2]; 2 HR): 66484 ng/organ; Organ level of CBD-Mono-VHS, SPLEEN ([2]; 2 HR): 1438 ng/organ; Plasma level of CBD-Mono-VHS ([2]; 2 HR): 285 ng/mL; Organ level of CBD-Mono-VHS, BRAIN ([2]; 4 HR): 205 ng/organ; Organ level of CBD-Mono-VHS, LIVER ([2]; 4 HR): 8301 ng/organ; Organ level of CBD-Mono-VHS, SPLEEN ([2]; 4 HR): 392 ng/organ; Plasma level of CBD-Mono-VHS ([2]; 4 HR): 53 ng/mL; Effect on cisplatin-induced tactile allodynia (eVF paw withdrawal), in words ([3]; 1.0 to 4.0 mg/kg (CBD equivalent) IP alone): dose-dependent attenuation of tactile allodynia that equal 2.5 mg/kg morphine at 3.0 and 4.0 mg/kg; Effect on cisplatin-induced tactile allodynia (eVF paw withdrawal), in words ([3]; 1.0 to 4.0 mg/kg (CBD equivalent) in combination with 0.1 mg/kg morphine, IP): shifted this dose response curve to the left where 2.0 mg/kg CBD-Mono-VHS attenuated tactile allodynia equal to that of 2.5 mg/kg morphine; Doses with mean withdrawal thresholds significantly higher compared to vehicle ([3]; IP alone): 2.0 to 4.0 mg/kg; Doses with mean withdrawal thresholds significantly higher compared to vehicle ([3]; IP, combination with 0.1 mg/kg morphine): 1.0 to 4.0 mg/kg; Plasma Concentration of CBD-Mono-VHS, Average ([4]; 0 hr): 0.0; Plasma Concentration of CBD-Mono-VHS ([4]; 0 hr): 0.0; Plasma Concentration of CBD-Mono-VHS, Average ([4]; 0.25 hr): 13.2; Plasma Concentration of CBD-Mono-VHS ([4]; 0.25 hr): 14.7 and 10.1 and 14.8; Plasma Concentration of CBD-Mono-VHS, Average ([4]; 0.5 hr): 38.5; Plasma Concentration of CBD-Mono-VHS ([4]; 0.5 hr): 44.2 and 38.4 and 32.9; Plasma Concentration of CBD-Mono-VHS, Average ([4]; 1 hr): 89.4; Plasma Concentration of CBD-Mono-VHS ([4]; 1 hr): 106.0 and 54.3 and 108.0; Plasma Concentration of CBD-Mono-VHS, Average ([4]; 2 hr): 114.7; Plasma Concentration of CBD-Mono-VHS ([4]; 2 hr): 108.0 and 123.0 and 113.0; Plasma Concentration of CBD-Mono-VHS, Average ([4]; 4 hr): 57.2; Plasma Concentration of CBD-Mono-VHS ([4]; 4 hr): 57.5 and 60.5 and 53.5; Plasma Concentration of CBD-Mono-VHS, Average ([4]; 6 hr): 28.7; Plasma Concentration of CBD-Mono-VHS ([4]; 6 hr): 18.6 and 37.4 and 30.1; Plasma Concentration of CBD-Mono-VHS, Average ([4]; 8 hr): 24.0; Plasma Concentration of CBD-Mono-VHS ([4]; 8 hr): 44.8 and 21.6 and 27.3; Plasma Concentration of CBD-Mono-VHS, Average ([4]; 24 hr): 0.9; Plasma Concentration of CBD-Mono-VHS ([4]; 24 hr): 0.0 and 2.5 and 2.6; Maximum solubility achieved in Tocrisolve ([5]; as the substance itself): 1.18 % w/v; Maximum solubility achieved in Tocrisolve (In terms of CBD) ([5]; in terms of CBD): (0.61) % w/v; Plasma Concentration of CBD-Mono-VHS, Average ([6]; 0 hr): 0.0 ng/mL; Plasma Concentration of CBD-Mono-VHS ([6]; 0 hr): 0.0 ng/mL; Plasma Concentration of CBD-Mono-VHS, Average ([6]; 0.25 hr): 1029.0 ng/mL; Plasma Concentration of CBD-Mono-VHS ([6]; 0.25 hr): 1255.5 ng/mL and 1512.3 ng/mL and 370.2 ng/mL and 978.0 ng/mL; Plasma Concentration of CBD-Mono-VHS, Average ([6]; 0.5 hr): 1626.3 ng/mL; Plasma Concentration of CBD-Mono-VHS ([6]; 0.5 hr): 1174.8 ng/mL and 2655.0 ng/mL and 1437.1 ng/mL and 1238.2 ng/mL; Plasma Concentration of CBD-Mono-VHS, Average ([6]; 1 hr): 2127.5 ng/mL; Plasma Concentration of CBD-Mono-VHS ([6]; 1 hr): 1400.6 ng/mL and 3120.9 ng/mL and 2496.6 ng/mL and 1492.0 ng/mL; Plasma Concentration of CBD-Mono-VHS, Average ([6]; 2 hr): 593.5 ng/mL; Plasma Concentration of CBD-Mono-VHS ([6]; 2 hr): 392.2 ng/mL and 1317.3 ng/mL and 399.5 ng/mL and 264.8 ng/mL; Plasma Concentration of CBD-Mono-VHS, Average ([6]; 4 hr): 234.8 ng/mL; Plasma Concentration of CBD-Mono-VHS ([6]; 4 hr): 115.1 ng/mL and 423.3 ng/mL and 116.1 ng/mL and 284.8 ng/mL; Plasma Concentration of CBD-Mono-VHS, Average ([6]; 6 hr): 212.0 ng/mL; Plasma Concentration of CBD-Mono-VHS ([6]; 6 hr): 71.4 ng/mL and 181.0 ng/mL and 397.8 ng/mL and 197.8 ng/mL; Plasma Concentration of CBD-Mono-VHS, Average ([6]; 8 hr): 152.2 ng/mL; Plasma Concentration of CBD-Mono-VHS ([6]; 8 hr): 44.6 ng/mL and 89.8 ng/mL and 210.0 ng/mL and 264.4 ng/mL; Plasma Concentration of CBD-Mono-VHS, Average ([6]; 24 hr): 27.2 ng/mL; Plasma Concentration of CBD-Mono-VHS ([6]; 24 hr): 6.5 ng/mL and 37.8 ng/mL and 47.1 ng/mL and 17.5 ng/mL; blood levels which remain significant at 24 hr. after dosing ([6]; oral 4 mg/animal, 24 hr): > 10 ng/mL; Analog Conc., AQ Humor [7, 9]: 90.3 ± 13.6 ng/g of tissue; Analog Conc., Iris Ciliary Bodies [7, 9]: 1034 ± 87.4 ng/g of tissue; Analog Conc., Retina Choroid [7, 9]: 689 ± 127 ng/g of tissue; CBD Conc., Iris Ciliary Bodies [7, 9]: 353 ± 43^ ng/g of tissue; CBD Conc., Retina Choroid [7, 9]: 194 ± 31.2 ng/g of tissue; Analog Concentration, Aqueous Humor [7, 10]: 98.7 ± 19.8 ng/g of tissue; Analog Concentration, Iris Ciliary Bodies [7, 10]: 422 ± 197 ng/g of tissue; Analog Concentration, Retina Choroid [7, 10]: 519 ± 476 ng/g of tissue; CBD concentration, Aqueous Humor [7, 10]: 61.3 ± 5.9 ng/g of tissue; CBD concentration, Iris Ciliary Bodies [7, 10]: 585 ± 103 ng/g of tissue; CBD concentration, Retina Choroid [7, 10]: 503 ± 373 ng/g of tissue; Ocular tissue levels of free CBD, in words (Example 13) [7, 11]: high levels of Free CBD in the retina choroid and iris-ciliary bodies; Ocular tissue levels of the applied substance, in words (Example 13) [7, 11]: detected in high concentration in the aqueous humor, retina choroid and iris-ciliary bodies; Penetration into the ocular tissues, in words (Example 14) ([7]; rabbit eye, topical Tocrisolve emulsion): superior analog for penetration into the different tissues of the eye; Organ level of CBD-Mono-VHS, KIDNEY ([8]; 2 HR): 353 ng/organ; Organ level of CBD-Mono-VHS, KIDNEY ([8]; 4 HR): 115 ng/organ
